Test results as given in ChEMBL document CHEMBL4177618, “Design and synthesis of a novel series of (1'S,2R,4'S)-3H-4'-azaspiro[benzo[4,5]imidazo[2,1-b]oxazole-2,2'-bicyclo[2.2.2]octanes] with high affinity for the α7 neuronal nicotinic receptor” (Bioorg Med Chem Lett, 2017).

Assays:
[1] = target: T1, 5-hydroxytryptamine receptor 3A (Homo sapiens, UniProt P46098); assay: Antagonist activity at human 5-HT3A receptor expressed in HEK293 cells assessed as inhibition of 5-HT-induced calcium flux preincubated for 30 mins prior to 5-HT addition by Fluo-4 AM dye based FLIPR assay; assay type: cell-based
T1 sequence (P46098 whole entry): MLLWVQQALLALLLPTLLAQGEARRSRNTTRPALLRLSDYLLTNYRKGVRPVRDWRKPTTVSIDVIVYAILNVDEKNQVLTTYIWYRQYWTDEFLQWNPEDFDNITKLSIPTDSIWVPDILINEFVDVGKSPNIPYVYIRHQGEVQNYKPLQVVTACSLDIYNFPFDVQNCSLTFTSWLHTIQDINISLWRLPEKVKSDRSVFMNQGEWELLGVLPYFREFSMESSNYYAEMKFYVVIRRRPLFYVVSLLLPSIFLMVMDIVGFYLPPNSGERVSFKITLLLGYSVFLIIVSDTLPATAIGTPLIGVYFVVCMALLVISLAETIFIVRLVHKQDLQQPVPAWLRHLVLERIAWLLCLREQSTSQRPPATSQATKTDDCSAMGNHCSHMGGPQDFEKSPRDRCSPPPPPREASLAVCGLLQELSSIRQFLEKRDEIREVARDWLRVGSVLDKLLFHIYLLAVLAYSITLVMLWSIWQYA

[2] = target: T2, Neuronal acetylcholine receptor subunit alpha-7 (Rattus norvegicus, UniProt Q05941); assay: Agonist activity at rat alpha7 nAChR expressed in HEK293 cells co-expressing human RIC-3 assessed as increase in calcium flux measured for 2 mins by Fluo-4 AM dye based FLIPR assay; assay type: cell-based
[3] = Selectivity ratio of IC50 for human 5-HT3A receptor expressed in HEK293 cells to EC50 for rat alpha7 nAChR expressed in HEK293 cells; assay type: cell-based
[4] = target: Neuronal acetylcholine receptor; alpha3/beta4 (Rattus norvegicus, UniProt P04757+P12392); assay: Agonist activity at rat alpha3beta4 nAChR expressed in HEK293 cells assessed as increase in calcium flux measured for 2 mins by Fluo-4-AM dye based FLIPR assay; assay type: cell-based
[5] = target: Neuronal acetylcholine receptor; alpha4/beta2 (Rattus norvegicus, UniProt P09483+P12390); assay: Agonist activity at rat alpha4beta2 nAChR expressed in HEK293 cells assessed as increase in calcium flux measured for 2 mins by Fluo-4-AM dye based FLIPR assay; assay type: cell-based
[6] = Agonist activity at rat alpha1beta1deltaepsilon nAChR expressed in HEK293 cells assessed as increase in calcium flux measured for 2 mins by Fluo-4-AM dye based FLIPR assay; assay type: cell-based; details: HEK293, 2 min
[7] = target: T2, Neuronal acetylcholine receptor subunit alpha-7; assay: Displacement of [125I]alpha-bungarotoxin from rat alpha7 nAChR expressed in HEK293 cell membranes after 2 hrs by topcount scintillation counting analysis
[8] = target: Neuronal acetylcholine receptor subunit alpha-7 (Homo sapiens, UniProt P36544); assay: Binding affinity to human alpha7 nAChR
[9] = target: T1, 5-hydroxytryptamine receptor 3A; assay: Binding affinity to 5-HT3A receptor (unknown origin)

T2 sequence (Q05941 whole entry): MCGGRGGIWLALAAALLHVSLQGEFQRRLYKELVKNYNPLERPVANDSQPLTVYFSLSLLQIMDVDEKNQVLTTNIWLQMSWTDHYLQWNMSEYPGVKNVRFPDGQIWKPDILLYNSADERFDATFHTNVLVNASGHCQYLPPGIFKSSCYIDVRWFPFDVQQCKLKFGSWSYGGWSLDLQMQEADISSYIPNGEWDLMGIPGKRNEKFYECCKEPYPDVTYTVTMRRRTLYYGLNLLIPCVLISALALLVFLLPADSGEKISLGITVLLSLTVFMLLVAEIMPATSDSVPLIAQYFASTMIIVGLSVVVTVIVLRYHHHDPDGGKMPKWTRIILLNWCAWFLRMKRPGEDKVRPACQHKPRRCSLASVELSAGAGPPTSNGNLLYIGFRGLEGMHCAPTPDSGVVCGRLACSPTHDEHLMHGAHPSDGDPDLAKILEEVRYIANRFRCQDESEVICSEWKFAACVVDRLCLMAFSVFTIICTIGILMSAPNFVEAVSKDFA
Sequence of Neuronal acetylcholine receptor subunit alpha-7 (Homo sapiens, UniProt P36544) (P36544 whole entry): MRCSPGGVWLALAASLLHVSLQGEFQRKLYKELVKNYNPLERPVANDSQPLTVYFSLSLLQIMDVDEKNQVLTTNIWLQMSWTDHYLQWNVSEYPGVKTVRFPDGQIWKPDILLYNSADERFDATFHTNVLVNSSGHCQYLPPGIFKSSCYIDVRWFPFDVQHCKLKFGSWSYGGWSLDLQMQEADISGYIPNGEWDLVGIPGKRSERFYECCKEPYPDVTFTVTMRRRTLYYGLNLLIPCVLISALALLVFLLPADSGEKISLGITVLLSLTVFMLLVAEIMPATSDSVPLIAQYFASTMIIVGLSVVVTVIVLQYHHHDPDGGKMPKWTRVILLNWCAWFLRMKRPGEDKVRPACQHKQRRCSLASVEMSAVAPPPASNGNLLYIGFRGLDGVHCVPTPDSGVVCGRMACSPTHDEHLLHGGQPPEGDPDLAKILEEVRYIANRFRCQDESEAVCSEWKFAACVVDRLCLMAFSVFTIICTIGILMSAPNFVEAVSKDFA
Sequence of Neuronal acetylcholine receptor; alpha4/beta2 (P09483 whole entry): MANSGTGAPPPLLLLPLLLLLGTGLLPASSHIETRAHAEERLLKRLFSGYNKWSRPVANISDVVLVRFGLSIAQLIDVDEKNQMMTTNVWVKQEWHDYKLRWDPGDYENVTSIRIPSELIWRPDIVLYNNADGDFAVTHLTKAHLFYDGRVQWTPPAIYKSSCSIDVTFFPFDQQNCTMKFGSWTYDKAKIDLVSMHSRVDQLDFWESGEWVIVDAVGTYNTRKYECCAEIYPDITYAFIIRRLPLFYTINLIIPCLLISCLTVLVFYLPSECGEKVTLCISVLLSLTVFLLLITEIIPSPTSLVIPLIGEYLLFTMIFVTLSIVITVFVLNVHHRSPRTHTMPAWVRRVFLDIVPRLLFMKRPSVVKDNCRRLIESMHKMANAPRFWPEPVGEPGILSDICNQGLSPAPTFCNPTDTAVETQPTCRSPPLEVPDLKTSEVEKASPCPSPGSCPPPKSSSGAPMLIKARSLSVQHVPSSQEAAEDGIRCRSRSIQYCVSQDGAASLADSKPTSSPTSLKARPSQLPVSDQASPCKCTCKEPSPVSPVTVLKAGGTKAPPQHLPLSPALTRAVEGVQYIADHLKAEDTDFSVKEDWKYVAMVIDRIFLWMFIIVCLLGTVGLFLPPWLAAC
Sequence of Neuronal acetylcholine receptor; alpha4/beta2 (P12390 whole entry): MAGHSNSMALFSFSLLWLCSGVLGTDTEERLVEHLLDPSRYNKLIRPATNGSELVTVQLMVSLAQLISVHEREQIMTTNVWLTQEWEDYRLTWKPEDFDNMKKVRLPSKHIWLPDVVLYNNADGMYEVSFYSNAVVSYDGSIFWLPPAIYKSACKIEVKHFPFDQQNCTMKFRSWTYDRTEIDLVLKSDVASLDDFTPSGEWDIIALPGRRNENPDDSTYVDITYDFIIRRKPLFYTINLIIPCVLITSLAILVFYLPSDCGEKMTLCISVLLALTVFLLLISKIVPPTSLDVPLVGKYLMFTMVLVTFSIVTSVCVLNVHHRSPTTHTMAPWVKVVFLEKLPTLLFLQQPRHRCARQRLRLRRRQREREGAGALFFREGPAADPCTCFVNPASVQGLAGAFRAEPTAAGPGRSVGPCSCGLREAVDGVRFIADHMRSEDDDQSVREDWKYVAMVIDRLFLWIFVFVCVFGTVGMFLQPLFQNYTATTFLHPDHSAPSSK
Sequence of Neuronal acetylcholine receptor; alpha3/beta4 (P04757 whole entry): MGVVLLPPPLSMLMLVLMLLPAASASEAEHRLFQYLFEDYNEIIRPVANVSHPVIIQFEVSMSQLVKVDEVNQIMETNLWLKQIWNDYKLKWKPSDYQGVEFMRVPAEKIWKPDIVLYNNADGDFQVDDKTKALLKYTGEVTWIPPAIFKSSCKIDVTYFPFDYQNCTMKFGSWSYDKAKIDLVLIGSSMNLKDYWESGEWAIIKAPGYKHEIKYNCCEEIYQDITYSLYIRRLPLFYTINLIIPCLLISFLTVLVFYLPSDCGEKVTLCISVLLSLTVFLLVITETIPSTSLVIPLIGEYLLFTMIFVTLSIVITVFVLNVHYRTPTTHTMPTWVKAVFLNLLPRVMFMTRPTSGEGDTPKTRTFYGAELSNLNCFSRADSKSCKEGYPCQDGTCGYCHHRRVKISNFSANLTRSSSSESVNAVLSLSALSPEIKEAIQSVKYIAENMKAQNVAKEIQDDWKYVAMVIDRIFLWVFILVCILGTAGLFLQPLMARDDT
Sequence of Neuronal acetylcholine receptor; alpha3/beta4 (P12392 whole entry): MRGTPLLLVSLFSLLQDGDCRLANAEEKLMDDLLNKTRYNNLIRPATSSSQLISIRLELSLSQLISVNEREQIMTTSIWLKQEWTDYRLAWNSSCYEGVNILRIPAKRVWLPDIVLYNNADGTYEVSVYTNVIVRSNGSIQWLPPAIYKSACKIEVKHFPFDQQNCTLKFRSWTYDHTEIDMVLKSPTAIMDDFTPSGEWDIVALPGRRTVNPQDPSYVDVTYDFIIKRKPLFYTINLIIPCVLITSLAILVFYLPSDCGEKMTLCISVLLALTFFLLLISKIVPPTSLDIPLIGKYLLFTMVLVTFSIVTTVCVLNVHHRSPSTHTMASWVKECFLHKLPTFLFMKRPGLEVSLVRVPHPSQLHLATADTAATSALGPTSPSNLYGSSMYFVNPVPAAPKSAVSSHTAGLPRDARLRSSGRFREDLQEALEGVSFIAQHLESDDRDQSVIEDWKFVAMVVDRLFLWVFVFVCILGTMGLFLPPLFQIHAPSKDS

Structure (SMILES) | IC50 [1] | EC50 [2] | Ratio IC50/EC50 [3] | also measured
Brc1nc2n(c1Br)C[C@]1(CN3CCC1CC3)O2 | 9700 nM | 4030 nM |  | 
FC(F)(F)c1ccc2nc3n(c2c1)C[C@@]1(CN2CCC1CC2)O3 | 17 nM | 69 nM | 0.25 | 
c1ccc2c(c1)nc1n2C[C@@]2(CN3CCC2CC3)O1 | 15 nM | 11 nM | 1.4 | EC50 [4]: > 100000 nM; EC50 [5]: > 100000 nM; EC50 [6]: > 100000 nM
COc1ccc(-c2cccc3c2nc2n3C[C@@]3(CN4CCC3CC4)O2)cc1 | 10400 nM | 26 nM | 400 | 
c1cnc2c(c1)C[C@@]1(CN3CCC1CC3)O2 [AZD0328] |  |  |  | Ki [7]: 5 nM
Cc1ccc2nc3n(c2c1)C[C@@]1(CN2CCC1CC2)O3 | 6 nM | 33 nM | 0.2 | 
COc1ccc2c(c1)nc1n2C[C@@]2(CN3CCC2CC3)O1 | 11 nM | 7 nM | 1.6 | 
Brc1nc2n(c1Br)CC1(CN3CCC1CC3)O2 (racemic) | 62 nM | 32 nM |  | 
Clc1ccc2c(c1)nc1n2C[C@@]2(CN3CCC2CC3)O1 | 6 nM | 31 nM | 0.2 | 
Clc1cccc2c1nc1n2C[C@@]2(CN3CCC2CC3)O1 | 4 nM | 16 nM | 0.3 | 
Cc1cccc2c1nc1n2C[C@@]2(CN3CCC2CC3)O1 | 7 nM | 7 nM | 1 | 
FC(F)(F)c1cccc2c1nc1n2C[C@@]2(CN3CCC2CC3)O1 | 11 nM | 22 nM | 0.5 | 
Brc1nc2n(c1Br)C[C@@]1(CN3CCC1CC3)O2 | 43 nM | 19 nM |  | 
c1ccc2c(c1)nc1n2C[C@]2(CN3CCC2CC3)O1 | 13000 nM | 6400 nM | 2 | 
c1ccc(-c2cnc3c(c2)C[C@@]2(CN4CCC2CC4)O3)cc1 |  |  |  | Ki [8]: 2 nM; Ki [9]: 2 nM
Clc1ccc2nc3n(c2c1)C[C@@]1(CN2CCC1CC2)O3 | 9 nM | 14 nM | 0.6 | 
Clc1cccc2nc3n(c12)C[C@@]1(CN2CCC1CC2)O3 | 11 nM | 268 nM | 0.04 | 
FC(F)(F)c1ccc2c(c1)nc1n2C[C@@]2(CN3CCC2CC3)O1 | 660 nM | 13 nM | 51 | 
Cc1ccc2c(c1)nc1n2C[C@@]2(CN3CCC2CC3)O1 | 13 nM | 5 nM | 2.6 | 
